Source: BindingDB's records for doi:10.1016/s0960-894x(98)00641-6 (Kwansei Gakuin University, 1999)

Assay: Compound was tested for inhibitory activity against type II Phospholipase A2 (PLA2) isolated from japanese mamushi (Agkistrodon halys blomhoffii) venom

With `CCCCCCCCCCCC(=O)N[C@H](CCCC)COP(=O)([O-])OCC[N+](C)(C)C` [(2-{[2-((S)-Dodecanoylamino)-hexyloxy]-hydroxy-phosphoryloxy}-ethyl)-trimethyl-ammonium] as the molecule, how does the IC50 read?
Its IC50 is 5.3 µM.

For `CCCCCCCCCCCC(=O)N1C(=O)O[C@@H](COP(=O)([O-])OCC[N+](C)(C)C)[C@H]1CCC` [{2-[((4R,5S)-3-Dodecanoyl-2-oxo-4-propyl-oxazolidin-5-ylmethoxy)-hydroxy-phosphoryloxy]-ethyl}-trimethyl-ammonium], which IC50 is on record?
The IC50 was 45.8 µM.

Which IC50 does the source give for `CCCCCCCCCCCC(=O)N1C(=O)O[C@H](COP(=O)([O-])OCC[N+](C)(C)C)[C@H]1CCC` [{2-[((4R,5S)-3-Dodecanoyl-2-oxo-4-propyl-oxazolidin-5-ylmethoxy)-hydroxy-phosphoryloxy]-ethyl}-trimethyl-ammonium] here?
The IC50 was 19.8 µM.

Which IC50 does the source give for `CCCCCCCCCCCC(=O)N1C(=O)O[C@H](COP(=O)([O-])OCC[N+](C)(C)C)[C@@H]1CCC` [{2-[((4S,5R)-3-Dodecanoyl-2-oxo-4-propyl-oxazolidin-5-ylmethoxy)-hydroxy-phosphoryloxy]-ethyl}-trimethyl-ammonium] here?
Its IC50 is 52.9 µM.

With `CCCCCCCCCCCC(=O)N1C(=O)O[C@@H](COP(=O)([O-])OCC[N+](C)(C)C)[C@@H]1CCC` [{2-[((4S,5S)-3-Dodecanoyl-2-oxo-4-propyl-oxazolidin-5-ylmethoxy)-hydroxy-phosphoryloxy]-ethyl}-trimethyl-ammonium] as the molecule, how does the IC50 read?
The IC50 was 40.1 µM.

With `CCCCCCCCCCCC(=O)N1C(=O)OC[C@@H]1COP(=O)([O-])OCC[N+](C)(C)C` [{2-[((R)-3-Dodecanoyl-2-oxo-oxazolidin-4-ylmethoxy)-hydroxy-phosphoryloxy]-ethyl}-trimethyl-ammonium] as the molecule, how does the IC50 read?
The IC50 was 31.3 µM.
